{"source": "patent US12569453B2", "about": "“Use of tapinarof for the treatment of atopic dermatitis” (Dermavant Sciences GmbH, priority 2018, dated 2026)", "key": {"[1]": {"assay": "Phase II AD study: plasma PK samples", "format": "in vivo, human", "settings": "for concentration at 1 week: Week 1; for concentration at 2 week: Week 2; for concentration at 4 week: Week 4; for concentration at 8 week: Week 8", "experimental": "Pharmacokinetics: A total of 5 blood samples for PK analysis of GSK2894512 were collected from each subject over the clinic visits at Weeks 1, 2, 4, 8, and 12. Plasma analysis was performed under the management of Bioanalytical Science and Toxicokinetics, DMPK, GSK.\nPharmacokinetics: Subjects with atopic dermatitis, BSA involvement >5% and <35%, excluding scalp, and Baseline IGA score of >3 at Baseline, participated in this study in which 2 concentrations of Tapinarof cream (0.5% and 1%) and a vehicle control were evaluated following application to all AD lesions (except on the scalp) once or twice daily for 12 weeks.\nA total of 5 blood samples for PK analysis of Tapinarof were collected from each subject at the following clinic visits: Weeks 1, 2, 4, 8, and 12. Subjects were advised to provide PK samples during each of the following 3 time windows: 1 to 3 hours post application, 3 to 6 hours post application, and 6 to 12 hours post application."}, "[2]": {"system": "adult subjects with psoriasis", "assay": "Phase II/2b psoriasis study: safety and tolerability", "format": "in vivo, human", "experimental": "Safety was assessed by the monitoring and recording of all AEs and serious adverse events (SAEs); evaluation of local (application site) tolerability; monitoring of hematology (including peripheral blood Immunophenotyping and Immunoglobulins), clinical chemistry, and vital signs; and the performance of ECGs and physical examinations.\nSafety assessments included incidence, frequency and severity of AEs, evaluation of local (application-site) tolerability, clinical laboratory parameters, vital signs, electrocardiogram changes, and physical examinations. An unblinded Independent Data Monitoring Committee monitored patient safety. Investigators assessed the overall degree of irritation at the application sites using a scale of 0 (no irritation) to 4 (very severe/strong reaction) at each study visit. A score of 3 or 4 was reported as an AE. Study treatment was discontinued if a score of 4 was noted. Subject-reported tolerability was assessed using a 5-point tolerability scale of 0 (none) to 4 (strong/severe) to assess the presence and degree of burning/stinging and itching at the application site within 2 hours following application of tapinarof or vehicle."}, "[3]": {"settings": "human, plasma, topical, 0.5 % cream BID, Subject 111301, 0.5% BID"}, "[4]": {"settings": "human, plasma, topical, 0.5 % cream BID, Subject 316851, 0.5% BID"}, "[5]": {"settings": "human, plasma, topical, 1 % cream BID, Subject 110406, 1% BID"}, "[6]": {"settings": "human, plasma, topical, 1 % cream BID, Subject 110604, 1% BID"}, "[7]": {"settings": "all cases in active treatment groups"}, "[8]": {"settings": "pooled active treatment groups (n=152)"}, "[9]": {"settings": "pooled tapinarof groups (n=152)"}}}
{"compound": "CC(C)c1c(O)cc(/C=C/c2ccccc2)cc1O", "note": "[Tapinarof, 3,5-Dihydroxy-4-isopropyl-trans-stilbene]", "values": [{"measurement": "subjects with plasma concentration >0.84 ng/mL (minipig NOAEL Cmax)", "setting": "[1]; 0.5% BID", "result": 4, "unit": "subjects"}, {"measurement": "subjects with plasma concentration >0.84 ng/mL (minipig NOAEL Cmax)", "setting": "[1]; 0.5% QD", "result": 2, "unit": "subjects"}, {"measurement": "subjects with plasma concentration >0.84 ng/mL (minipig NOAEL Cmax)", "setting": "[1]; 1% BID", "result": 5, "unit": "subjects"}, {"measurement": "subjects with plasma concentration >0.84 ng/mL (minipig NOAEL Cmax)", "setting": "[1]; 1% QD", "result": 2, "unit": "subjects"}, {"measurement": "subjects with plasma concentration >0.84 ng/mL (minipig NOAEL Cmax)", "setting": "[1]; all Tapinarof groups, out of 247", "result": 13, "unit": "subjects"}, {"measurement": "concentration at 1 week", "setting": "[1]; [3]", "result": 6.09, "unit": "ng/mL"}, {"measurement": "concentration at 2 week", "setting": "[1]; [3]", "result": 0.438, "unit": "ng/mL"}, {"measurement": "concentration at 4 week", "setting": "[1]; [3]", "result": 0.649, "unit": "ng/mL"}, {"measurement": "concentration at 1 week", "setting": "[1]; [4]", "result": 0.362, "unit": "ng/mL"}, {"measurement": "concentration at 2 week", "setting": "[1]; [4]", "result": 0.106, "unit": "ng/mL"}, {"measurement": "concentration at 8 week", "setting": "[1]; [4]", "result": 1.93, "unit": "ng/mL"}, {"measurement": "concentration at 1 week", "setting": "[1]; [5]", "result": 0.233, "unit": "ng/mL"}, {"measurement": "concentration at 2 week", "setting": "[1]; [5]", "result": 0.347, "unit": "ng/mL"}, {"measurement": "concentration at 4 week", "setting": "[1]; [5]", "result": 4.9, "unit": "ng/mL"}, {"measurement": "concentration at 8 week", "setting": "[1]; [5]", "result": 0.514, "unit": "ng/mL"}, {"measurement": "concentration at 1 week", "setting": "[1]; [6]", "result": 1.48, "unit": "ng/mL"}, {"measurement": "concentration at 2 week", "setting": "[1]; [6]", "result": 0.266, "unit": "ng/mL"}, {"measurement": "concentration at 4 week", "setting": "[1]; [6]", "result": 0.43, "unit": "ng/mL"}, {"measurement": "concentration at 8 week", "setting": "[1]; [6]", "result": 0.0716, "unit": "ng/mL"}, {"measurement": "concentration at 12 week", "setting": "[1]; human, plasma, topical, 1 % cream BID, Subject 110604, 1% BID, Week 12", "result": 0.311, "unit": "ng/mL"}, {"measurement": "concentration at 2 week", "setting": "[1]; human, plasma, topical, 1 % cream BID, Subject 316651, 1% BID", "result": 181, "unit": "ng/mL"}, {"measurement": "quantifiable plasma samples", "setting": "[1]; of 753 samples from subjects on active treatment, LLOQ 0.04 ng/mL", "result": 348}, {"measurement": "Application-site dermatitis", "setting": "[2]; 0.5% BID", "result": 0, "unit": "n"}, {"measurement": "Dermatitis allergic", "setting": "[2]; 0.5% BID", "result": 0, "unit": "n"}, {"measurement": "Miliaria", "setting": "[2]; 0.5% BID", "result": 0, "unit": "n"}, {"measurement": "Urticaria", "setting": "[2]; 0.5% BID", "result": 0, "unit": "n"}, {"measurement": "headache", "setting": "[2]; 0.5% BID", "result": 0, "unit": "n"}, {"measurement": "Acne", "setting": "[2]; 0.5% QD", "result": 0, "unit": "n"}, {"measurement": "Dermatitis allergic", "setting": "[2]; 0.5% QD", "result": 0, "unit": "n"}, {"measurement": "Serious TEAEs", "setting": "[2]; 0.5% QD", "result": 0, "unit": "n"}, {"measurement": "Urticaria", "setting": "[2]; 0.5% QD", "result": 0, "unit": "n"}, {"measurement": "Vomiting", "setting": "[2]; 0.5% QD", "result": 0, "unit": "n"}, {"measurement": "Miliaria", "setting": "[2]; 1% BID", "result": 0, "unit": "n"}, {"measurement": "Urticaria", "setting": "[2]; 1% BID", "result": 0, "unit": "n"}, {"measurement": "Vomiting", "setting": "[2]; 1% BID", "result": 0, "unit": "n"}, {"measurement": "Nasopharyngitis", "setting": "[2]; 1% BID, listed as GSK2894512", "result": 1, "unit": "n"}, {"measurement": "folliculitis", "setting": "[2]; 1% BID, listed as GSK2894512", "result": 8, "unit": "n"}, {"measurement": "Acne", "setting": "[2]; 1% QD", "result": 0, "unit": "n"}, {"measurement": "Dermatitis allergic", "setting": "[2]; 1% QD", "result": 0, "unit": "n"}, {"measurement": "Nasopharyngitis", "setting": "[2]; 1% QD", "result": 0, "unit": "n"}, {"measurement": "Vomiting", "setting": "[2]; 1% QD", "result": 0, "unit": "n"}, {"measurement": "folliculitis, median duration (resolved events)", "setting": "[2]; active treatment groups", "result": 55, "unit": "days"}, {"measurement": "folliculitis, median time to onset", "setting": "[2]; active treatment groups", "result": 26, "unit": "days"}, {"measurement": "headache, median duration", "setting": "[2]; active treatment groups", "result": 3, "unit": "days"}, {"measurement": "headache, median time to onset", "setting": "[2]; active treatment groups", "result": 2.5, "unit": "days"}, {"measurement": "nasopharyngitis, median duration", "setting": "[2]; active treatment groups", "result": 12, "unit": "days"}, {"measurement": "nasopharyngitis, median time to onset", "setting": "[2]; active treatment groups", "result": 13, "unit": "days"}, {"measurement": "contact dermatitis, median duration", "setting": "[2]; [7]", "result": 32, "unit": "days"}, {"measurement": "contact dermatitis, median time to onset", "setting": "[2]; [7]", "result": 30, "unit": "days"}, {"measurement": "subjects with serious TEAEs", "setting": "[2]; all in Tapinarof treatment groups, none treatment-related", "result": 7, "unit": "subjects"}, {"measurement": "Nasopharyngitis", "setting": "[2]; [8]", "result": 5, "unit": "%"}, {"measurement": "Vomiting", "setting": "[2]; [8]", "result": 2, "unit": "%"}, {"measurement": "headache", "setting": "[2]; [8]", "result": 4, "unit": "%"}, {"measurement": "subjects permanently discontinuing treatment due to TEAEs", "setting": "[2]; [8]", "result": 10, "unit": "%"}, {"measurement": "subjects with TEAEs", "setting": "[2]; [8]", "result": 56, "unit": "%"}, {"measurement": "subjects with mild TEAEs", "setting": "[2]; [8]", "result": 27, "unit": "%"}, {"measurement": "subjects with moderate TEAEs", "setting": "[2]; [8]", "result": 22, "unit": "%"}, {"measurement": "subjects with severe TEAEs", "setting": "[2]; [8]", "result": 7, "unit": "%"}, {"measurement": "subjects with treatment-related TEAEs", "setting": "[2]; [8]", "result": 22, "unit": "%"}, {"measurement": "treatment-related monocyte count decreased", "setting": "[2]; [8]", "result": 1, "unit": "%"}, {"measurement": "contact dermatitis", "setting": "[2]; [9]", "result": 8, "unit": "%"}, {"measurement": "folliculitis", "setting": "[2]; [9]", "result": 13, "unit": "%"}, {"measurement": "treatment-related folliculitis", "setting": "[2]; [9]", "result": 10, "unit": "%"}, {"measurement": "subjects with TEAEs considered related to treatment", "setting": "[2]; treatment groups pooled", "result": 34, "unit": "subjects"}, {"measurement": "subjects with at least one AE", "setting": "[2]; treatment groups pooled", "result": 89, "unit": "subjects"}, {"measurement": "subjects with at least one TEAE", "setting": "[2]; treatment groups pooled", "result": 85, "unit": "subjects"}]}
